These results are taken from PubChem BioAssay (NCI).

Molecules are shown by their SMILES. “And” between values parts separate entries of the source, which are not always exact repeats. Identical values can stand only once.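 Dose response: 5 concentrations. Exposure: 48 h. Format: 96-well plates. Endpoint: linear interpolation; highest concentration if not reached. Here, GI50 denotes the concentration required for 50% inhibition of growth. TGI denotes the concentration required for complete inhibition of growth.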 Where only a bound is given, the exact number is not on record here.

What all share (assay): NCI tumour cell line growth inhibition, 48 h
Assay [1] deals with SF-295 CNS.
Assay [2] concerns SR leukemia.
The test system of assay [3] is OVCAR-8 ovarian.
For assay [4], the system named is PC-3 prostate.
For assay [5], the system named is SN12C renal.
The test system of assay [6] is HT29 colon.
Assay [7] deals with K-562 leukemia.
Assay [8] relates to SK-OV-3 ovarian.
The test system of assay [9] is MDA-MB-435.
Assay [10] deals with UACC-62 melanoma.

Turning to `CSc1nc2c(c(=O)[nH]1)C(c1ccc(Cl)cc1)C1=C(N2)/C(=C/c2ccc(Cl)cc2)CNC1` (stereo not given), the GI50 in assay [1] was 1.96 µM; in assay [2], 1.9 µM; in assay [3], 2.7 µM; in assay [4], 1.99 µM; in assay [5], 2.06 µM; in [6] it was 2.05 µM. The GI50 in assay [7] was 3.09 µM; in assay [8] it was 2.66 µM; in [9], 1.79 µM; in assay [10], 2.02 µM. Also, the TGI in assay [1] amounted to 4.43 µM; in assay [2], 5.87 µM; in assay [3] it was 8.72 µM; in [4] it was 5.1 µM; in assay [5], 4.7 µM; in assay [6] it was 5.09 µM. For the same compound, the TGI is 15.1 µM in [7], 6.33 µM in assay [8], 3.69 µM in assay [9] and 4.5 µM in [10].
Take `O=C(/C=C/c1cccnc1)c1ccccc1O`: the GI50 in assay [1] was 16.6 µM; in assay [2] it was 12.3 µM; in assay [3] it was 31.5 µM; in assay [4], 21.9 µM; in assay [5], 24.4 µM; in assay [6], 21.4 µM. In addition, the GI50 is 20.9 µM in assay [7], 33.7 µM in [8], 16.4 µM in [9] and 16.2 µM in [10]. For the same compound, the TGI was 41.7 µM in [1]; 64.6 µM in assay [2]; over 100 µM in [3]; 66.8 µM in assay [4]; 81.9 µM in [5]; 58.7 µM in assay [6]. Also, the TGI in [7] was 80 µM; in [8], over 100 µM; in assay [9], 37 µM; in assay [10] it was 35.3 µM.
Consider `COc1cc(C2C(C#N)=C(N)Oc3cc(O)ccc32)cc(OC)c1OC` (stereo not given), for which the GI50 in [1] was 0.374 µM; in [2], 0.335 µM; in assay [3] it was 0.856 µM; in [4], 0.619 µM; in [5], 0.827 µM; in [6], 0.39 µM. Besides, the GI50 is 0.435 µM in assay [7], 0.481 µM in assay [8], 0.147 µM in assay [9] and 0.407 µM in assay [10]. Besides, the TGI was over 100 µM in assay [1]; over 100 µM in assay [2]; over 100 µM in assay [3]; over 100 µM in assay [4]; over 100 µM in assay [5]; 11.8 µM in assay [6]. Also, the TGI was over 100 µM in [7], over 43.9 µM in [8], 0.643 µM in [9] and over 100 µM in [10].
On to `O=C1OC2C(O)C(=O)OC2C1O` (stereo not given), for which the TGI in assay [1], in assay [2], in assay [3], in assay [4], in assay [5] and in [6] was over 100 µM each time. The TGI in [7], in [8], in [9] and in [10] was over 100 µM throughout.
On to `Cc1nc2cc(N)c(Cl)cc2[nH]1`, for which the TGI in assay [1], in assay [2], in assay [3], in assay [4], in [5] and in [6] was over 100 µM each time. Further, the TGI in assay [7], in assay [8], in assay [9] and in [10] was over 100 µM each time.
`NC[C@@](O)(c1ccc(Cl)cc1)c1ccc(-c2cn[nH]c2)cc1`: the GI50 in [1] was 0.969 µM; in assay [2], 1.16 µM; in [3], 1.63 µM; in assay [4], 3.89 µM and 2.19 µM; in [5], 2.39 µM and 1.88 µM; in assay [6] it was 1.98 µM. For the same compound, the GI50 in assay [7] is 1.69 µM; in [8], 2.23 µM; in assay [9], 1.81 µM; in assay [10] it was 3.2 µM. Further, the TGI in assay [1] was 4.62 µM; in assay [2], 4.64 µM; in assay [3], 3.43 µM; in [4], over 100 µM; in assay [5], over 100 µM; in assay [6] it was 7.26 µM. In addition, the TGI is 3.53 µM in assay [7], over 10 µM in assay [8], 3.61 µM in [9] and over 10 µM in assay [10].
Take `COc1cc(OC)cc(-c2cncn2-c2ccc(-c3nc4cc(OC)c(OC)c(OC)c4s3)cc2)c1`: the GI50 is 3.64 µM in assay [1]; 7.14 µM in assay [2]; 13.4 µM in assay [3]; 3.17 µM in assay [4]; 31.9 µM in assay [5]; 8.33 µM in [6]. Further, the GI50 in [7] was 3.57 µM; in assay [8], 49.9 µM; in assay [9], 6.07 µM; in [10], 13.8 µM. The TGI is 52.9 µM in assay [1]; over 100 µM in assay [2]; over 100 µM in [3]; over 100 µM in [4]; over 100 µM in assay [5]; over 100 µM in assay [6]. Moreover, the TGI in assay [7], in [8], in assay [9] and in assay [10] was over 100 µM each time.
As to `CCN(CC(COc1ccc2c(c1)[n+]([O-])nc(N)[n+]2[O-])OC(C)=O)C(C)=O` (stereo not given), the TGI in [1], in assay [2], in assay [3], in [4], in assay [5] and in assay [6] was over 100 µM throughout. Also, the TGI is over 100 µM in assay [7], 74.9 µM in [8], over 100 µM in assay [9] and over 100 µM in [10].
